{"source": "patent US10525110B2", "about": "“Methods for inducing partial apoptosis using caspase polypeptides” (Bellicum Pharmaceuticals, Inc., priority 2013, dated 2020)", "key": {"[1]": {"tested_on": "EBV-specific and CMV-specific T cells", "assay": "Pentamer analysis of virus-specific T cells after AP20187 treatment of allostimulated cells", "format": "cell-based, human", "conditions": "10 nM after 4 days reactivation with allogeneic PBMC"}, "iCasp9-transduced MSCs": {"tested_on": "iCasp9-transduced MSCs", "assay": "Apoptosis of iCasp9-transduced undifferentiated MSCs in vitro (annexin V-PE/7-AAD)", "format": "cell-based, human", "conditions": "CID 50 nM, 24 hours, FACS example", "procedure": "Undifferentiated MSCs. The chemical inducer of dimerization (CID) (AP20187; ARIAD Pharmaceuticals, Cambridge, Mass.) was added at 50 nM to iCasp9-transduced MSCs cultures in complete medium. Apoptosis was evaluated 24 hours later by FACS analysis, after cell harvest and staining with annexin V-PE and 7-AAD in annexin V binding buffer (BD Biosciences, San Diego, Calif.). Control iCasp9-transduced MSCs were maintained in culture without exposure to CID.\nThe proapoptotic gene product iCasp9 can activated by a small chemical inducer of dimerization (CID), AP20187, an analogue of tacrolimus that binds the FK506-binding domain present in the iCasp9 product. Non-transduced MSCs have a spontaneous rate of apoptosis in culture of approximately 18% (±7%) as do iCasp9-positive cells at baseline (15±6%, P=0.47). Addition of CID (50 nM) to MSC cultures after transduction with iCasp9-ΔCD19 results in the apoptotic death of more than 90% of iCasp9-positive cells within 24 hrs (93±1%, P<0.0001), while iCasp9-negative cells retain an apoptosis index similar to that of non-transduced controls (20±7%, P=0.99 and P=0.69 vs. non-transduced controls with or without CID respectively) (see FIGS. 17A and 70B). […] Apoptosis was evaluated 24 hours later by FACS analysis, after cell harvest and staining with annexin V-PE and 7-AAD. […]"}, "[2]": {"tested_on": "iCasp9-ΔCD19-transduced MSCs", "assay": "In vivo killing of iCasp9-ΔCD19-transduced MSCs in SCID mice (luminescence, qPCR)"}, "[3]": {"tested_on": "iCasp9M-transduced EBV-CTLs", "assay": "CID-induced elimination of GFP+ iCasp9M-transduced EBV-CTLs (flow cytometry for GFP)", "format": "cell-based, human"}}, "data": [{"smiles": "CC[C@H](C(=O)N1CCCC[C@H]1C(=O)O[C@H](CCc1ccc(OC)c(OC)c1)c1cccc(OCC(=O)NCC(CNC(=O)COc2cccc([C@@H](CCc3ccc(OC)c(OC)c3)OC(=O)[C@@H]3CCCCN3C(=O)[C@@H](CC)c3cc(OC)c(OC)c(OC)c3)c2)CN(C)C)c1)c1cc(OC)c(OC)c(OC)c1", "note": "[AP20187]", "values": [{"measurement": "effect on virus-specific T cells", "setting": "[1]", "result": "spares (and thereby enriches) viral reactive subpopulations"}, {"measurement": "annexin positive iCasp9-CD19-positive cells (iCasp pos/CID)", "setting": "iCasp9-transduced MSCs", "result": "Ninety-three"}, {"measurement": "annexin positive negative population (iCasp neg/CID)", "setting": "iCasp9-transduced MSCs", "result": 19, "unit": "%"}, {"measurement": "surviving iCasp9-positive cells, % of the original population", "setting": "[2]; after one week, qPCR", "result": 0.7, "unit": "%"}, {"measurement": "effect on cells negative for iCasp9", "setting": "[2]; luminescence", "result": "not affected"}, {"measurement": "reduction in mean fluorescence intensity of GFP after CID", "setting": "[3]; CTLs that survived CID treatment", "result": 70, "unit": "%"}, {"measurement": "further elimination of the surviving GFP+ T cells", "setting": "[3]; antigenic stimulation followed by a second 10-nM dose of CID", "result": "No further elimination"}, {"measurement": "CID sufficient to obtain the maximal deletion effect", "setting": "[3]; titration, F-Casp9M.I.GFPhigh, survival of GFP+ cells on day 7", "result": 1, "unit": "nM"}, {"measurement": "GFP+ cells eliminated after a single 10-nM dose of CID", "setting": "[3]; unselected iCasp9M-transduced CTLs, 5 different donors", "result": 91.3, "unit": "%"}]}]}
